# Results taken from publication PMC7037732, “Synthesis of Combretastatin A-4 and 3′-Aminocombretastatin A-4 derivatives with Aminoacid Containing Pendants and Study of their Interaction with Tubulin and as Downregulators of the VEGF, hTERT and c-Myc Gene Expression” (Molecules, 2020).
# Values joined by “and” are separate entries in the source; they are usually repeats but may differ in a detail not shown here. Equal entries are not always repeated. “Also recorded” adds a separate entry of the source.
# Tests used:
# [1] = tested on: tubulin; assay: In vitro tubulin polymerization by turbidimetry (It50); type: biochemical; conditions: turbidimetry at 350 nm, 37 °C; for Effect on in vitro tubulin polymerization: result in words; for It50 (time required to reach 50% of the polymerization): control 16.6 ± 1.0
# Protocol: Figure 3 also includes polymerization curves in the presence of CA-4, AmCA-4 and paclitaxel. This test was also performed using paclitaxel, a microtubule stabilizing agent, as a control for the complete formation of microtubules (see Figure 3).
# [2] = tested on: A-549 cells; assay: Effect on the cellular microtubule network (immunofluorescence); type: cell-based, human
# Protocol: The effect on the cellular microtubule network of CA-4 derivatives was studied for compounds 1, 3.7 (L-Thr-OMe), 3.8 (L-Tyr-OMe), 4.2 (L-Val) and 4.3 (L-Leu), which were those accumulating more cells in the G2/M phase. Thus, A-549 cells were incubated for 24 h in the presence of the above compounds and CA-4 at the concentrations indicated in Figure 4.
# The effect of some derivatives on the cellular microtubule network were also studied on A-549 cells. The selected compounds were 7.1 (Fmoc-Gly) (0.5 μM), 8.1 (Gly) (2 μM), 8.2 (L-Ala) (3 μM) and 10.1 (D-Val) (40 μM), which were those exerting a higher effect on the cell cycle.
# For immunofluorescence microscopy of the microtubule network, 10^6 cells were plated on cover glass and incubated with the different drugs. Cells were then fixed in 3.7% formaldehyde (in PBS pH 7.4) for 20 min at room temperature and permeabilized with PBS-Triton X-100 0.5% for 10 min at room temperature. Direct immunostaining was carried out for 2 h at room temperature with a primary FITC-conjugated anti-α-tubulin antibody (dilution 1:400 in PBS-BSA 1% from a 1 mg/mL solution; monoclonal antibody, clone DM1A; Sigma-Aldrich, Darmstadt, Germany.). Next, cells were incubated for 45 min at room temperature in darkness with secondary Alexa Fluor 488-conjugated antibodies (dilution 1:200 each from 1.5 mg/mL; Molecular Probe, France). Then, cells were washed in PBS and cover glasses were mounted with a drop of ProLong® antifade solution (Invitrogen). The cytoskeleton was imaged by a confocal laser scanning microscope (CLSM) Leica SP5 with a Leica inverted microscope, equipped with a Plan-Apochromat 63× oil immersion objective (NA = 1.4). Each image was recorded with the CLSM’s spectral mode selecting specific domains of the emission spectrum. The FITC fluorophore was excited at 488 nm with an argon laser, and its fluorescence emission was collected between 496 nm and 535 nm.
# [3] = tested on: VEGF gene; assay: VEGF gene expression by RT-qPCR in HT-29 cells; type: cell-based, human
# Protocol: The effect on the expression of VEGF, hTERT and c-Myc genes has been studied for CA-4 and its derivatives that show selectivity indexes higher than 0.9 on the HT-29 cell line. The studied derivatives, together with the concentrations to which they have been tested, are CA-4 (15 μM); 4.1 (Gly, 5 μM); 4.5 (L-Pro, 25 μM); 4.9 (L-Met, 25 μM); 6.2 (D-Leu, 25 μM); 6.3 (D-Phe, 25 μM); 6.4 (D-Pro, 25 μM) and 6.5 (D-Ser, 10 μM). The expression of the genes was determined by RT-qPCR methodology, as described in the Materials and Methods section.
# As regards AmCA-4 derivatives, the effect on the expression of the VEGF, hTERT and c-Myc genes has been studied on those that show IC50 in the low nanomolar range on the HT-29 cell line and/or on compounds whose selectivity indexes with respect to this cell line are higher than 1. The studied compounds, together with the concentrations to which they have been tested, are: CA-4 (15 μM), AmCA-4 (15 nM), 7.1 (7 nM), 7.2 (1.5 nM), 7.3 (4 nM), 7.4 (15 nM), 7.5 (2 nM), 7.7 (7 nM), 7.8 (15 nM), 7.9 (30 nM), 8.1 (7 nM), 8.2 (3 nM), 8.3 (10 nM), 8.4 (1.5 nM), 8.5 (4 nM), 8.7 (7 nM), 8.8 (3 nM) and 8.9 (4 nM).
# HT-29 cells at 70–80% confluence were collected, and 1.5 × 10^5 cells were placed in a six-well plate in 1.5 mL of the medium. After 24 h, cells were incubated with the corresponding compounds for 48 h. Cells were collected, and the total cellular RNA from the HT-29 cells was isolated using an Ambion RNA Extraction Kit, according to the manufacturer’s instructions. The cDNA was synthesized by MMLV-RT with […] of extracted RNA and oligo(dT)15, according to the manufacturer’s instructions. Genes were amplified by a thermal cycler and StepOnePlus™ TaqMan® probes. TaqMan® Gene Expression Master Mix Fast, containing the appropriate buffer for the amplification conditions, dNTPs, thermostable DNA polymerase enzyme and a passive reference probe, was used. To amplify each of the genes, the predesigned primers sold by Life Technologies TaqMan® Gene Expression Assays Hs99999903-m1 (β-actin), Hs00900055-m1 (VEGF), Hs00972646-m1 (hTERT) and Hs00153408-m1 (c-Myc) were used.
# [4] = Homo sapiens; HT-29, 48 h, 25 μM; control 100
# [5] = HT-29, 48 h; discussion; concentration per compound
# [6] = Homo sapiens, HT-29, 48 h, 25 μM, control 100
# [7] = Homo sapiens, HT-29, 48 h, 7 nM, control 100
# [8] = Homo sapiens, HT-29, 48 h, 4 nM, control 100
compound,measurement,setting,value
"COc1ccc(/C=C\c2cc(OC)c(OC)c(OC)c2)cc1N [AmCA-4, 3′-aminocombretastatin A-4]",Effect on in vitro tubulin polymerization,[1],almost no absorbance is detected
same,Effect on the microtubule network,"[2]; A-549, 24 h, 50 nM",total depolymerization of microtubules
same,mrna remaining at 0.015 µM,"[3]; Homo sapiens; HT-29, 48 h, 15 nM; control 100",67%
"COc1ccc(/C=C\c2cc(OC)c(OC)c(OC)c2)cc1O [CA-4, combretastatin A-4]",Effect on in vitro tubulin polymerization,[1],almost no absorbance is detected
same,Effect on the microtubule network,"[2]; A-549, 24 h, 50 nM",greatly depolymerizes microtubules
same,mrna remaining at 15 µM,"[3]; Homo sapiens; HT-29, 48 h, 15 μM; control (DMSO) 100; normalized to β-actin",40%
COc1ccc(/C=C\c2cc(OC)c(OC)c(OC)c2)cc1OCC(=O)NCC(=O)O [Compound 4.1],mrna remaining at 5 µM,"[3]; Homo sapiens, HT-29, 48 h, 5 μM, control 100",45%
COc1ccc(/C=C\c2cc(OC)c(OC)c(OC)c2)cc1OCC(=O)N[C@H](C(=O)O)C(C)C [Compound 4.2],mrna remaining at 25 µM,[3]; [4],89%
COc1ccc(/C=C\c2cc(OC)c(OC)c(OC)c2)cc1OCC(=O)N[C@@H](CCSC)C(=O)O [Compound 4.9],downregulation of VEGF gene expression,[3]; [5],more than 55%
same,mrna remaining at 25 µM,[3]; [6],37 to 55%
COc1ccc(/C=C\c2cc(OC)c(OC)c(OC)c2)cc1OCC(=O)N[C@H](CC(C)C)C(=O)O [Compound 6.2],mrna remaining at 25 µM,[3]; [6],40%
COc1ccc(/C=C\c2cc(OC)c(OC)c(OC)c2)cc1OCC(=O)N[C@H](Cc1ccccc1)C(=O)O [Compound 6.3],mrna remaining at 25 µM,[3]; [4],77%
COc1ccc(/C=C\c2cc(OC)c(OC)c(OC)c2)cc1OCC(=O)N1CCC[C@@H]1C(=O)O [Compound 6.4],mrna remaining at 25 µM,[3]; [6],25%
COc1ccc(/C=C\c2cc(OC)c(OC)c(OC)c2)cc1OCC(=O)N[C@H](CO)C(=O)O [Compound 6.5],mrna remaining at 10 µM,"[3]; Homo sapiens, HT-29, 48 h, 10 μM, control 100",54%
COc1ccc(/C=C\c2cc(OC)c(OC)c(OC)c2)cc1NC(=O)CNC(=O)OCC1c2ccccc2-c2ccccc21 [Compound 7.1],It50 (time required to reach 50% of the polymerization),[1],16 ± 3 min
same,Effect on the microtubule network,"[2]; A-549, 0.5 μM",almost total depolymerization of the microtubule network
same,mrna remaining at 0.007 µM,[3]; [7],69%
COc1ccc(/C=C\c2cc(OC)c(OC)c(OC)c2)cc1NC(=O)[C@H](Cc1ccccc1)NC(=O)OCC1c2ccccc2-c2ccccc21 [Compound 7.5],downregulation of VEGF gene expression,[3]; [5],more than 60%
same,mrna remaining at 0.002 µM,"[3]; Homo sapiens, HT-29, 48 h, 2 nM, control 100",16%
COc1ccc(/C=C\c2cc(OC)c(OC)c(OC)c2)cc1NC(=O)[C@H](CCSC)NC(=O)OCC1c2ccccc2-c2ccccc21 [Compound 7.9],mrna remaining at 0.03 µM,"[3]; Homo sapiens, HT-29, 48 h, 30 nM, control 100",68%
COc1ccc(/C=C\c2cc(OC)c(OC)c(OC)c2)cc1NC(=O)CN [Compound 8.1],It50 (time required to reach 50% of the polymerization),[1],18.5 ± 2.1 min
same,Effect on the microtubule network,"[2]; A-549, 2 μM",almost total depolymerization of the microtubule network
same,mrna remaining at 0.007 µM,[3]; [7],24%
COc1ccc(/C=C\c2cc(OC)c(OC)c(OC)c2)cc1NC(=O)[C@H](C)N [Compound 8.2],It50 (time required to reach 50% of the polymerization),[1],48 ± 5 min
same,Effect on in vitro tubulin polymerization,[1],able to delay the polymerization process; also recorded: partial inhibitors of the polymerization process; also recorded: partial inhibitors of the in vitro polymerization of tubulin
same,Effect on the microtubule network,"[2]; A-549, 3 μM",almost total depolymerization of the microtubule network
same,mrna remaining at 0.003 µM,"[3]; Homo sapiens, HT-29, 48 h, 3 nM, control 100",84%
COc1ccc(/C=C\c2cc(OC)c(OC)c(OC)c2)cc1NC(=O)[C@@H](N)C(C)C [Compound 8.3],mrna remaining at 0.01 µM,"[3]; Homo sapiens, HT-29, 48 h, 10 nM, control 100",33%
COc1ccc(/C=C\c2cc(OC)c(OC)c(OC)c2)cc1NC(=O)[C@@H](N)Cc1ccccc1 [Compound 8.5],Effect on the microtubule network,"[2]; A-549, 0.5 μM",much less active
same,mrna remaining at 0.004 µM,[3]; [8],37%
COc1ccc(/C=C\c2cc(OC)c(OC)c(OC)c2)cc1NC(=O)[C@@H](N)C(C)O (some centres unmarked) [Compound 8.7],It50 (time required to reach 50% of the polymerization),[1],65 min and 65 ± 7 min
same,Effect on in vitro tubulin polymerization,[1],able to delay the polymerization process; also recorded: partial inhibitors of the polymerization process; also recorded: partial inhibitors of the in vitro polymerization of tubulin
same,downregulation of VEGF gene expression,[3]; [5],more than 60%
same,mrna remaining at 0.007 µM,[3]; [7],15%
COc1ccc(/C=C\c2cc(OC)c(OC)c(OC)c2)cc1NC(=O)[C@@H](N)CCSC [Compound 8.9],mrna remaining at 0.004 µM,[3]; [8],48%
